Laboratory results reported in patent US8362074B2, “Synergistic insecticidal compositions” (priority 1999, dated 2013).

How the values were obtained:
[1] = test system: adult male German cockroaches (Blattella germanica); test: Treated dog chow bait test on adult male German cockroaches; type: in vivo; conditions: 1.00 % active ingredient
Description: In this evaluation, adult male German cockroaches (Blattella germanica) are used. For each test, a 4.0 g portion of ground Purina Dog Chow (Hi-Pro Glo®) is treated with an acetone solution of test compound alone or in combination with a second test compound. After treatment, the acetone is evaporated and the treated dog chow is placed in a ¾ oz plastic cup which is placed in a harborage made of folded sheets of blotter paper placed in a plastic box (16″ L×11″ W×6″ H). The plastic box (test arena) is also fitted with a 1 oz narrow mouth bottle with 2 dental wicks inserted at the mouth. A control box is prepared in the same manner using ground dog chow which has been treated with reagent grade acetone. Each treatment is replicated three times. Into each test arena are placed 20 healthy adult male cockroaches which have been reared in an insectary. The test arenas are then stored at 76° F. and mortality is determined daily by visual examination.

[2] = test system: Helicoverpa zea (cotton bollworm) larvae; test: Treated artificial diet surface test on cotton bollworm larvae; type: in vivo
Description: In this evaluation, Helicoverpa zea (cotton bollworm) larvae are obtained from a laboratory colony. Test compounds are dissolved in 1:1 v/v acetone/water. Plastic bioassay trays (C-D International, Pitman, N.J.) are used as test arenas. Each tray contains 32 open-faced wells, 4.0×4.0×2.5 cm. A portion (5 ml) of a wheat germ-soybean flour-based artificial diet (Southland Products, Lake Village, Ark.) is poured into each well. After the diet hardened, 0.4 ml of test solution is pipetted onto the diet surface in each well. Test solutions are evenly spread over surfaces of diet by picking up the tray and gently tilting it from side to side. Trays are then held in a vented area for about 2 h, until water is no longer pooled on diet surfaces. A single 4-day-old H. zea larva is then placed on the surface of diet in each well. After larval infestation, each well is covered with an adhesive, vented, clear plastic sheet.
All test arenas are held under constant fluorescent light and a temperature of about 27° C. for duration of the assay. Larval mortality is determined at 2, 3, 4 and 7 days after treatment. […] A total of 32 insects were tested for each treatment.

`CC1(C)CNC(=NN=C(/C=C/c2ccc(C(F)(F)F)cc2)/C=C/c2ccc(C(F)(F)F)cc2)NC1` [Compound B, hydramethylnon] showed a mortality at 1 % strength ([1]; 72 h, 3 days after treatment) of 0%, a mortality at 1 % strength ([1]; 96 h, 4 days after treatment) of 5% and a mortality at 1 % strength ([1]; 120 h, 5 days after treatment) of 28.3%. The mortality at 1 % strength ([1]; 144 h, 6 days after treatment) was 71.7%, the mortality at 1 % strength ([1]; 168 h, 7 days after treatment) was 90% and the mortality at 1 % strength ([1]; 192 h, 8 days after treatment) was 93.3%. The “% Mortality” value ([2]; 100 OB/ml, 2 days after treatment) was 3.1%, the “% Mortality” value ([2]; 100 OB/ml, 3 days after treatment) was 3.1% and the “% Mortality” value ([2]; 100 OB/ml, 4 days after treatment) was 3.1%. For the same compound, the “% Mortality” value ([2]; 100 OB/ml, 7 days after treatment) was 15.6%, the “% Mortality” value ([2]; 500 OB/ml, 2 days after treatment) was 0.0% and the “% Mortality” value ([2]; 500 OB/ml, 3 days after treatment) was 9.4%. The “% Mortality” value ([2]; 500 OB/ml, 4 days after treatment) was 18.8%, the “% Mortality” value ([2]; 500 OB/ml, 7 days after treatment) was 40.6% and the “% Mortality” value ([2]; 1000 OB/ml, 2 days after treatment) was 3.1%. For the same compound, the “% Mortality” value ([2]; 1000 OB/ml, 3 days after treatment) was 34.4%, the “% Mortality” value ([2]; 1000 OB/ml, 4 days after treatment) was 50.5% and the “% Mortality” value ([2]; 1000 OB/ml, 7 days after treatment) was 62.5%.
